Data reported in patent US20090227606A1, “Methods for Preventing or Treating Acute and Chronic Pain” (priority 2006, published 2009).
“Also recorded” adds a separate entry of the source.

Legend:
[1] = tested on: Na+-dependent glutamate transport; assay: Na+-dependent [3H]-glutamate uptake in cultured astrocytes; assay type: cell-based, rat
Protocol: Primary astrocytes were plated in 6-well plates, as described above. […] Where indicated, 100 μM dihydrokainate (DHK) was added to wells for 10 minutes before the addition of the substrate. Subsequently, [^3H]-glutamate in Na^+ Krebs buffer or Na^+-free Krebs buffer (choline buffer) was added for 4 minutes at 37° C. The reaction was stopped by washing three times with ice cold buffer (0.05 M Tris/0.16 M NaCl, pH 7.4), and cells were lysed with 1 ml 0.1 N NaOH. The radioactivity in a 500 μl lysate aliquot was determined by liquid scintillation counting and a fraction of the lysate was also used for determination of protein concentration using the Lowry method (DC assay, Bio-Rad, Hercules, Calif.). Na^+-dependent transport was calculated as the difference in the radioactivity accumulated in the presence and absence of Na^+ and calculated as nmol/mg protein/min. Results are expressed as uptake relative to control samples.

MCP-1 (CCL2) = assay: ELISA of MCP-1 release from cultured astrocytes; assay type: cell-based, rat; conditions: seven days
Protocol: After approximately 14 days (2 days after subplating into plates, DIV 14) astrocytes had formed a confluent monolayer. […] Phase contrast microscopy was then carried out in order to assess the morphology of cells after the various treatments. Length of astrocyte processes was quantified by measuring all processes in 2-3 phase contrast images/group by an independent observer, blinded to the treatment groups using Image J v1.34s (National Institutes of Health, Bethesda, Md.).
Standard ELISA was performed for quantitative determination of MCP-1 and MIP-2 protein in cell culture supernatant. Assays were carried out according to the manufacturer's specifications (Biosource, Camarillo, Calif.) using the sandwich enzyme immunoassay procedure. Optical density at 450 nm was obtained using the MRX Revelations program (Dynex Technologies, Chantilly, Va.) and relative protein concentrations were determined by comparing samples to the standard curve generated.

GLT-1 mRNA = assay: Real Time RT-PCR of ipsilateral lumbar spinal cord, GLT-1 mRNA; assay type: in vivo, rat; conditions: daily intrathecal
Protocol: Tissue was collected from 4-5 rats/group on postoperative days 4 or 12. In order to obtain both mRNA and protein from the same tissue sample, the L5 region of the spinal cord (ipsilateral to the injury), was isolated and placed in PBS supplemented with protease inhibitor cocktail (1:1000, Sigma Chemical Co., St. Louis, Mo.) and RNase inhibitor (0.75 U/μL Ambion, Austin, Tex.). Samples were sonicated in five one-second bursts at half-maximal power, centrifuged at 6500 rpm for 15 minutes at 4° C. Protein-containing supernatants were collected and stored at −80° C. until further processing by Western blot analysis. […]
Real time RT-PCR reactions were carried out in a total reaction volume of 25 μL containing a final concentration of 1.5 U Platinum Taq DNA polymerase (Invitrogen Corporation, Carlsbad, Calif.); 20 mM Tris HCl (pH 8.4); 50 mM KCl; 3 mM MgCl2; 200 μM dGTP, dCTP, and dATP; 400 μM dUTP and 1 U of UDG (uracyl DNA glycosylase); 900 nM of forward and reverse primers; 300 nM Taqman probe; and 5 μL of a 10-fold dilution of cDNA (50 ng) from the RT step. The iCycler™ Multicolor Real-Time PCR detection system (Bio-Rad, Hercules, Calif.) was used to quantify PCR product. […] The relative fold change from control was then expressed by calculation of 2^−ΔΔC^T for each sample and the results are expressed as the group mean fold change±SEM.

[2] = tested on: cyclic-adenosine-5′,3′-monophosphate (cAMP)-specific phosphodiesterase (PDE IV); conditions: literature; cited from earlier work

CCCn1cnc2c1c(=O)n(CCCCC(C)=O)c(=O)n2C [propentofylline]
sensitivity of increased glutamate transport to DHK inhibition ([1]; 100 μM DHK for 10 minutes before substrate): sensitive to DHK inhibition | increase in glutamate uptake ([1]; 100 μM, 7 days): 1.7 fold | increase in Na+-dependent glutamate transport ([1]; 1000 μM, 7 days): 2.1 fold | glutamate uptake, in words ([1]; 7-day treated cultures): dose-dependent increase in glutamate uptake | LPS-induced MCP-1 (CCL2) release (MCP-1 (CCL2); LPS 1 μg/ml, propentofylline 1000 μM, db-cAMP 250 μM): reversed by co-treatment with propentofylline; also recorded: significantly attenuated | basal MCP-1 (CCL2) release, treatment alone (MCP-1 (CCL2); without LPS): had no effect | GLT-1 mRNA in lumbar spinal cord (GLT-1 mRNA; day 4 post-transection): enhanced; also recorded: significantly increased levels of GLT-1 mRNA | GLT-1 mRNA in lumbar spinal cord (GLT-1 mRNA; day 12 post-transection): enhanced; also recorded: significantly increased levels of GLT-1 mRNA | PDE IV [2]: inhibit
